# Experimental data taken from ChEMBL document CHEMBL5058642, “Data for DCP probe TP-051” (2022).
# Tests used:
# Rattus norvegicus [1] = species: Rattus norvegicus; experiment: Inhibition of Imidazoline I2, Central at 10 µM in the Eurofins-Panlabs radioligand binding assay (Eurofins_assay_241000); design: ligand concentration 2 nM; details: Compound concentration 10.0 uM
# Rattus norvegicus [2] = species: Rattus norvegicus; experiment: Adrenergic α2, Non-selective Eurofins-Panlabs radioligand binding assay; type: protein assay; details: Compound concentration 10.0 uM
# Homo sapiens [3] = species: Homo sapiens; experiment: Prostanoid, Thromboxane A2 (TP) Eurofins-Panlabs radioligand binding assay; design: ligand concentration 5 nM, non-specific ligand with concentration 1 µM SQ-29548, incubation time 30 min, incubation temperature 25 °C; details: Compound concentration 10.0 uM
# Homo sapiens [4] = species: Homo sapiens; experiment: Somatostatin sst2 Eurofins-Panlabs radioligand binding assay; design: ligand concentration 0.03 nM; details: Compound concentration 10.0 uM
# [5] = molecular target: T1, Sodium-dependent dopamine transporter (Homo sapiens, UniProt Q01959); details: Compound concentration 10.0 uM
# [6] = molecular target: Histamine H1 receptor (Homo sapiens) (UniProt P35367); details: Compound concentration 10.0 uM
# [7] = molecular target: B2 bradykinin receptor (Homo sapiens) (UniProt P30411); experiment: Bradykinin B2 Eurofins-Panlabs radioligand binding assay; details: Compound concentration 10.0 uM
# [8] = molecular target: Platelet-activating factor receptor (Homo sapiens) (UniProt P25105); experiment: Inhibition of Platelet Activating Factor (PAF) at 10 µM in the Eurofins-Panlabs radioligand binding assay (Eurofins_assay_265010); details: Compound concentration 10.0 uM
# Homo sapiens [9] = species: Homo sapiens; experiment: Estrogen ERbeta Eurofins-Panlabs radioligand binding assay; details: Compound concentration 10.0 uM
# [10] = molecular target: 5-hydroxytryptamine receptor 1A (Homo sapiens) (UniProt P08908); details: Compound concentration 10.0 uM
# Rattus norvegicus [11] = species: Rattus norvegicus; experiment: Inhibition of Glycine, Strychnine-Sensitive at 10 µM in the Eurofins-Panlabs radioligand binding assay (Eurofins_assay_239000); details: Compound concentration 10.0 uM
# [12] = molecular target: Substance-K receptor (Homo sapiens) (UniProt P21452); experiment: Inhibition of Tachykinin NK2 at 10 µM in the Eurofins-Panlabs radioligand binding assay (Eurofins_assay_255600); design: ligand concentration 0.5 nM; details: Compound concentration 10.0 uM
# [13] = molecular target: 5-hydroxytryptamine receptor 2B (Homo sapiens) (UniProt P41595); details: Compound concentration 10.0 uM
# Rattus norvegicus [14] = species: Rattus norvegicus; experiment: Testosterone Eurofins-Panlabs radioligand binding assay; design: ligand concentration 1.5 nM; details: Compound concentration 10.0 uM
# Homo sapiens [15] = species: Homo sapiens; experiment: Chemokine CXCR1/2 (IL-8, Non-selective) Eurofins-Panlabs radioligand binding assay; details: Compound concentration 10.0 uM
# Rattus norvegicus [16] = species: Rattus norvegicus; experiment: Serotonin (5-Hydroxytryptamine) 5-HT1, Non-Selective Eurofins-Panlabs radioligand binding assay; type: protein assay; details: Compound concentration 10.0 uM
# [17] = molecular target: 5-hydroxytryptamine receptor 1E (Homo sapiens) (UniProt P28566); details: Compound concentration 10.0 uM
# [18] = molecular target: Histamine H3 receptor (Homo sapiens) (UniProt Q9Y5N1); details: Compound concentration 10.0 uM
# [19] = molecular target: GABA-A receptor; anion channel (Rattus norvegicus) (UniProt O09028+P15431+P18506+P18508+P19969+P20236+P23574+P23576+P28471+P28473+P30191+P62813+P63079+P63138+Q91ZM7+Q9ES14); details: Compound concentration 10.0 uM
# [20] = molecular target: Beta-3 adrenergic receptor (Homo sapiens) (UniProt P13945); details: Compound concentration 10.0 uM
# [21] = molecular target: Alpha-2A adrenergic receptor (Homo sapiens) (UniProt P08913); details: Compound concentration 10.0 uM
# [22] = molecular target: Sigma non-opioid intracellular receptor 1 (Homo sapiens) (UniProt Q99720); details: Compound concentration 10.0 uM
# Rattus norvegicus [23] = species: Rattus norvegicus; experiment: Opiate, Non-Selective Eurofins-Panlabs radioligand binding assay; design: ligand concentration 1 nM; details: Compound concentration 10.0 uM
# [24] = molecular target: Estrogen receptor (Homo sapiens) (UniProt P03372); details: Compound concentration 10.0 uM
# [25] = molecular target: voltage-gated sodium channel, site 2 (Rattus norvegicus, UniProt F1LQQ7+O08562+O88420+O88457+P04774+P04775+P08104+P15389+P15390+Q62968); experiment: Inhibition of Sodium Channel, Site 2 at 10 µM in the Eurofins-Panlabs radioligand binding assay (Eurofins_assay_279510); type: protein assay; design: ligand concentration 5 nM, non-specific ligand with concentration 100 µM Veratridine, incubation time 60 min, incubation temperature 37 °C; details: male, Wistar, rat whole brain (except cerebellum) membranes, probe [3H] Batrachotoxinin, 5 nM, compound concentration 10 uM
# [26] = molecular target: Muscarinic acetylcholine receptor M5 (Homo sapiens) (UniProt P08912); details: Compound concentration 10.0 uM
# [27] = molecular target: T1, Sodium-dependent dopamine transporter; details: Compound concentration 10.0 uM; remark: listed apart in the source
# [28] = molecular target: Histamine H2 receptor (Homo sapiens) (UniProt P25021); details: Compound concentration 10.0 uM
# [29] = molecular target: Progesterone receptor (Homo sapiens) (UniProt P06401); experiment: Inhibition of Progesterone PR-B at 10 µM in the Eurofins-Panlabs radioligand binding assay (Eurofins_assay_268020); design: ligand concentration 1.4 nM; details: Compound concentration 10.0 uM
# [30] = molecular target: T2, Muscarinic acetylcholine receptor M2 (Homo sapiens) (UniProt P08172); experiment: Muscarinic M2 Eurofins-Panlabs radioligand binding assay; details: Compound concentration 10.0 uM
# T2 sequence (whole entry): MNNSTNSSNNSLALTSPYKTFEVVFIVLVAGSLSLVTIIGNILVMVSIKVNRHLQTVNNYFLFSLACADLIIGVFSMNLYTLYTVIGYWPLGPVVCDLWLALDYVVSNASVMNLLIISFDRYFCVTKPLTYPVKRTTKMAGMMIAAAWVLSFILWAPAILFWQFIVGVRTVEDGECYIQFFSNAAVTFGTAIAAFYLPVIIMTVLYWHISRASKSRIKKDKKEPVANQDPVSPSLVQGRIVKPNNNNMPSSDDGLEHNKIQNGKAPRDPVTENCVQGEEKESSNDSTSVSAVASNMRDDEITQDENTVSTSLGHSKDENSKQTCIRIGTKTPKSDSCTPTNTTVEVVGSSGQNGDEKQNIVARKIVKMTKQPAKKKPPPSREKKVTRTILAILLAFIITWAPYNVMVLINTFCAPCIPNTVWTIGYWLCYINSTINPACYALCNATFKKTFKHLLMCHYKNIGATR
# [31] = molecular target: Endothelin receptor type B (Homo sapiens) (UniProt P24530); details: Compound concentration 10.0 uM
# [32] = molecular target: Beta-2 adrenergic receptor (Homo sapiens, UniProt P07550); details: Compound concentration 10.0 uM
# [33] = molecular target: Substance-P receptor (Homo sapiens) (UniProt P25103); experiment: Tachykinin NK1 Eurofins-Panlabs radioligand binding assay; details: Compound concentration 10.0 uM
# [34] = molecular target: Type-1 angiotensin II receptor (Homo sapiens) (UniProt P30556); experiment: Angiotensin AT1 Eurofins-Panlabs radioligand binding assay; details: Compound concentration 10.0 uM
# [35] = molecular target: ATP-sensitive inward rectifier potassium channel 11 (Cricetulus griseus) (UniProt A0A3L7HHE1); experiment: Inhibition of Potassium Channel [KATP] at 10 µM in the Eurofins-Panlabs radioligand binding assay (Eurofins_assay_265600); details: Cricetinae; Compound concentration 10.0 uM
# [36] = molecular target: Mu-type opioid receptor (Homo sapiens) (UniProt P35372); details: Compound concentration 10.0 uM
# [37] = molecular target: Glutamate receptor ionotropic, kainate (Rattus norvegicus) (UniProt P22756+Q01812+P42260+P42264+Q63273); experiment: Inhibition of Glutamate, Kainate at 10 µM in the Eurofins-Panlabs radioligand binding assay (Eurofins_assay_232700); details: Compound concentration 10.0 uM
# Rattus norvegicus [38] = species: Rattus norvegicus; experiment: Potassium Channel [SKCA] Eurofins-Panlabs radioligand binding assay; design: ligand concentration 0.005 nM; details: Compound concentration 10.0 uM
# T1 sequence (Q01959 whole entry): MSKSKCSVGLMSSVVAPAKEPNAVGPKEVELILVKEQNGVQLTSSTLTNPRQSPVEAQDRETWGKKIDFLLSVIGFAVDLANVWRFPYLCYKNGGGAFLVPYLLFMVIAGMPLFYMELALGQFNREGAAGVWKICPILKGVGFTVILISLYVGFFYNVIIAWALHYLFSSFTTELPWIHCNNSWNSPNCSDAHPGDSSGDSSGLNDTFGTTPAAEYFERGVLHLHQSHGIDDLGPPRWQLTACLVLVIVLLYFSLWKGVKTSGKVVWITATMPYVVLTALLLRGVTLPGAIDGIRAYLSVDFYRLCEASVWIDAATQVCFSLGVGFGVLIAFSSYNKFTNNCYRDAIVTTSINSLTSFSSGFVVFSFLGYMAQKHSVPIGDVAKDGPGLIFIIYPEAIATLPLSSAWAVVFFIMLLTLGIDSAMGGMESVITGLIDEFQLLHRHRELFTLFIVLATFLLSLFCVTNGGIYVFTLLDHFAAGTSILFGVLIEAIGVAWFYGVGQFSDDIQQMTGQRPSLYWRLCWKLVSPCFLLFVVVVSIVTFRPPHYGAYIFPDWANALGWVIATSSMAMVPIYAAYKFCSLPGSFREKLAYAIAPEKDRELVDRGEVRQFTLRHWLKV
# Histamine H3 receptor (Homo sapiens), sequence (Q9Y5N1 whole entry): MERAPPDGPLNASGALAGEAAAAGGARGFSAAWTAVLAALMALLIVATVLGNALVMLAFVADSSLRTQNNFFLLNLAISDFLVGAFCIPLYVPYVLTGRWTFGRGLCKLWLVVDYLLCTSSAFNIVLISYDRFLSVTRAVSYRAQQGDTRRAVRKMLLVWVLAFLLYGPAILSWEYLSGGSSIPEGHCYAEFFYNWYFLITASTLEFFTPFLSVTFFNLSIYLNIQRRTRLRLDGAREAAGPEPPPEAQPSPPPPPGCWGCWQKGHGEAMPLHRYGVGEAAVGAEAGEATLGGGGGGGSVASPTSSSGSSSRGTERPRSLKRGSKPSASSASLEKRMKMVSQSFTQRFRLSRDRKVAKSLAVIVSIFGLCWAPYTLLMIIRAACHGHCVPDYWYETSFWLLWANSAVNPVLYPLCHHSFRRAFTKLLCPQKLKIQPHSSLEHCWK
# 5-hydroxytryptamine receptor 1A (Homo sapiens), sequence (P08908 whole entry): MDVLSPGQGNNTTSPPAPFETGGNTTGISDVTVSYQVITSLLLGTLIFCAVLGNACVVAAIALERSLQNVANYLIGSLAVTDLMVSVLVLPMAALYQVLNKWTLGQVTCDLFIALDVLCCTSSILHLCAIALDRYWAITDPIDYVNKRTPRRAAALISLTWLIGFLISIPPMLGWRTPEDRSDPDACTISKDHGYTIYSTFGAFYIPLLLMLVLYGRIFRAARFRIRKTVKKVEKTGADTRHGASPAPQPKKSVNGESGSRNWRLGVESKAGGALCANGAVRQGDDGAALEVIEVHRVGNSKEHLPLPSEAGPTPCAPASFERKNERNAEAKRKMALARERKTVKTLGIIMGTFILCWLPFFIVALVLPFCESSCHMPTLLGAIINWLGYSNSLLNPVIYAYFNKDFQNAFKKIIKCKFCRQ
# 5-hydroxytryptamine receptor 1E (Homo sapiens), sequence (P28566 whole entry): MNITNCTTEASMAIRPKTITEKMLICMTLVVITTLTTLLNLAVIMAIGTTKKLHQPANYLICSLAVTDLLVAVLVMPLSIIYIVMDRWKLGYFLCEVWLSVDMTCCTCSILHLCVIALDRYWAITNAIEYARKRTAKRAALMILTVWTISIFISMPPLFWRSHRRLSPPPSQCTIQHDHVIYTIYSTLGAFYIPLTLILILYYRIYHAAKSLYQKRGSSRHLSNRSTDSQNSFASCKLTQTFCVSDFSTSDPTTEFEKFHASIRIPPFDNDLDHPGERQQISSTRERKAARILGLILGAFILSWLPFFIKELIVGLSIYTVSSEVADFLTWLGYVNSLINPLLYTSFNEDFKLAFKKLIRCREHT
# Muscarinic acetylcholine receptor M5 (Homo sapiens), sequence (P08912 whole entry): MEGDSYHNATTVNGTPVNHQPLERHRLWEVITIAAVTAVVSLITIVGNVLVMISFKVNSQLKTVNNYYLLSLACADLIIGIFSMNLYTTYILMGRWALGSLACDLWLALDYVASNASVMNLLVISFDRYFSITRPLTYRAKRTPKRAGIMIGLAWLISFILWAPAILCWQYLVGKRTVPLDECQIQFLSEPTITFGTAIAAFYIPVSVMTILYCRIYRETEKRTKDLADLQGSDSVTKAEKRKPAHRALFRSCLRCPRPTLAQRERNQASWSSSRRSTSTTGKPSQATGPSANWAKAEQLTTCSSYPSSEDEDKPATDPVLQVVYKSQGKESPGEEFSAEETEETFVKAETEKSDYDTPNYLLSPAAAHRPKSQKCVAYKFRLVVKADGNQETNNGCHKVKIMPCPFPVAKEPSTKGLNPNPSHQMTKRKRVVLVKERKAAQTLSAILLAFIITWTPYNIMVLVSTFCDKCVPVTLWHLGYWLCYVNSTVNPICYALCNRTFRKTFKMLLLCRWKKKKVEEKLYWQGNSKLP
# Histamine H2 receptor (Homo sapiens), sequence (P25021 whole entry): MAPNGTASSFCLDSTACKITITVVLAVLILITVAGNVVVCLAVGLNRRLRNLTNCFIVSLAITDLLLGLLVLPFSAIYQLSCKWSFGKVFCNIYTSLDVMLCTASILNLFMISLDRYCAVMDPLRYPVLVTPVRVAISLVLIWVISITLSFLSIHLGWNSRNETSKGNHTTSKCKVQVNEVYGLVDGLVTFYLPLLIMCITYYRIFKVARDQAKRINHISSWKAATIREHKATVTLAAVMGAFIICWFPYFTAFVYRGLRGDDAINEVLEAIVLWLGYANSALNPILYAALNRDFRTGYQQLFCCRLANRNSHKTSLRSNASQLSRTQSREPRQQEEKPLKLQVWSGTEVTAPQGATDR
# Endothelin receptor type B (Homo sapiens), sequence (P24530 whole entry): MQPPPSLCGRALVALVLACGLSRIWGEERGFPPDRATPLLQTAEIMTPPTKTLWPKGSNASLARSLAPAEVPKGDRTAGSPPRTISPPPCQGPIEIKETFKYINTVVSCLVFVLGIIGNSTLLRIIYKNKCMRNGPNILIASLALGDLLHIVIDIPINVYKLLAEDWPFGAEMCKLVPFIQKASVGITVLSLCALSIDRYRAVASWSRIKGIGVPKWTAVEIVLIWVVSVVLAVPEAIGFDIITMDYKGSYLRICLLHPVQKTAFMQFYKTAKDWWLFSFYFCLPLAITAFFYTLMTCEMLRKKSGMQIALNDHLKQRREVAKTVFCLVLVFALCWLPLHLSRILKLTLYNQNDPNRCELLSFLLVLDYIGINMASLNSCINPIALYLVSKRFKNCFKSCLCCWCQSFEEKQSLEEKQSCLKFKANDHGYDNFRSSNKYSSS
# Histamine H1 receptor (Homo sapiens), sequence (P35367 whole entry): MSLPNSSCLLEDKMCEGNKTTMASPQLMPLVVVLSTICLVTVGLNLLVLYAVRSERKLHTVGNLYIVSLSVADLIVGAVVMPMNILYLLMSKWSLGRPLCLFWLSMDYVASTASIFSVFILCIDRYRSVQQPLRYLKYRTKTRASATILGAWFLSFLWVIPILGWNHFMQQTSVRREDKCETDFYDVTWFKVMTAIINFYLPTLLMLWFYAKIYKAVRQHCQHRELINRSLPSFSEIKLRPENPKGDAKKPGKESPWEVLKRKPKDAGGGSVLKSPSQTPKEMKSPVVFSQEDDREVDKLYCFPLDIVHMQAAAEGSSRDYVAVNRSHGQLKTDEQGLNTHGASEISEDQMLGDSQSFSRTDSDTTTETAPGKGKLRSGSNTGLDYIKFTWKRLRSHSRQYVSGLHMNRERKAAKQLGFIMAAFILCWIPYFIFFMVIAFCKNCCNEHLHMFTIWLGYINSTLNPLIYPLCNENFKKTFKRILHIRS
# Substance-P receptor (Homo sapiens), sequence (P25103 whole entry): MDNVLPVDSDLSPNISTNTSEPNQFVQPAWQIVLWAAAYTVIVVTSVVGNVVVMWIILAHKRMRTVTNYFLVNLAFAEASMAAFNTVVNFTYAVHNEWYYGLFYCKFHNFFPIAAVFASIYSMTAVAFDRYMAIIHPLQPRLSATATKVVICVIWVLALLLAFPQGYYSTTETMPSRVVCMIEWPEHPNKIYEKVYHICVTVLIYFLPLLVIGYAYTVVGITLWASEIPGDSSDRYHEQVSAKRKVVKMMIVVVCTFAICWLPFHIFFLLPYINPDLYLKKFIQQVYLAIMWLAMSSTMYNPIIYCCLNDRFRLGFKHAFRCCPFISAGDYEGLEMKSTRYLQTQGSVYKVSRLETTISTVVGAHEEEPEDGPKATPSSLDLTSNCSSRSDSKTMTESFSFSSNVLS
# Beta-3 adrenergic receptor (Homo sapiens), sequence (P13945 whole entry, looked up): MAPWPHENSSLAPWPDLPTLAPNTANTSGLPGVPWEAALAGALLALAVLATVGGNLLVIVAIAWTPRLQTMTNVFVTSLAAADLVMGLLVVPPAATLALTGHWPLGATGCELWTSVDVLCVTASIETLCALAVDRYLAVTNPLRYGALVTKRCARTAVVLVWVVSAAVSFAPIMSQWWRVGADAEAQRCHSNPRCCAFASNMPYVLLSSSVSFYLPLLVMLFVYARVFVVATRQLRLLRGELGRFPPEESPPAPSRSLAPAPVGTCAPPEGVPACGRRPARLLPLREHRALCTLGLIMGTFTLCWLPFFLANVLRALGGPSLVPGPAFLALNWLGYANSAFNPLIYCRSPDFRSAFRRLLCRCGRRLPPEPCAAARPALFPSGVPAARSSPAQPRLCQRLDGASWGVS
# Mu-type opioid receptor (Homo sapiens), sequence (P35372 whole entry): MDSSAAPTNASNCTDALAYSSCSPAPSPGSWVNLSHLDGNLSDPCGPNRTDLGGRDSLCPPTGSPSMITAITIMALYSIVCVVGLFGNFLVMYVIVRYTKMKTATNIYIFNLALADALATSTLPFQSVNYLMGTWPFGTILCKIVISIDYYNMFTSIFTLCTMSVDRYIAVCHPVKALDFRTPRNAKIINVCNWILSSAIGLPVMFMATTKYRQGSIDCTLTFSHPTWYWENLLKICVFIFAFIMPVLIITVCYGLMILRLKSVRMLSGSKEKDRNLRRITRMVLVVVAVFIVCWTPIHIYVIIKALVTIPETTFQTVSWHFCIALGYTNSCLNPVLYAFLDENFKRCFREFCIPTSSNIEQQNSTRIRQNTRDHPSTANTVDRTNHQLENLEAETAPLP
SMILES,inhibition (Rattus norvegicus [1]) [%],inhibition (Rattus norvegicus [2]) [%],inhibition (Homo sapiens [3]) [%],inhibition (Homo sapiens [4]) [%],inhibition [5] [%],inhibition [6] [%],inhibition [7] [%],inhibition [8] [%],inhibition (Homo sapiens [9]) [%],inhibition [10] [%],inhibition (Rattus norvegicus [11]) [%],inhibition [12] [%],inhibition [13] [%],inhibition (Rattus norvegicus [14]) [%],inhibition (Homo sapiens [15]) [%],inhibition (Rattus norvegicus [16]) [%],inhibition [17] [%],inhibition [18] [%],inhibition [19] [%],inhibition [20] [%],further results
Cc1cc(OC2CCS(=O)(=O)CC2)cc(C)c1-c1cccc(COc2ccc(C(=O)O)c(F)c2)c1,3,6,28,-6,-8,-2.18,-4,2,8,-6.09,5,3,3,26,4,-9,-1.42,6.7,14,-3,"inhibition [21]: 13.1%; inhibition [22]: 16.7%; inhibition (Rattus norvegicus [23]): 3%; inhibition [24]: 7%; inhibition at 60 min, 10 µM [25]: -5% (not active); inhibition [26]: -4.74%; inhibition [27]: 42.2%; inhibition [28]: 7.66%; inhibition [29]: 6%; inhibition [30]: -3%; inhibition [31]: 15%; inhibition [32]: -7%; inhibition [33]: 3%; inhibition [34]: 1%; inhibition [35]: -3%; inhibition [36]: 10%; inhibition [37]: 8%; inhibition (Rattus norvegicus [38]): 1%"
Cc1cc(OC2CCS(=O)(=O)CC2)cc(C)c1-c1cccc(COc2ccc(CCC(=O)O)c(F)c2)c1,-7,8,60,5,5,12,7,4,20,1.37,7,29,21.5,17,3,16,3.83,21.1,21,15,"inhibition [21]: 13%; inhibition [22]: 8.9%; inhibition (Rattus norvegicus [23]): -8%; inhibition [24]: 3%; inhibition at 60 min, 10 µM [25]: 6% (not active); inhibition [26]: 20.4%; inhibition [27]: 53.7%; inhibition [28]: 5.95%; inhibition [29]: 10%; inhibition [30]: 4%; inhibition [31]: 0%; inhibition [32]: 3%; inhibition [33]: 17%; inhibition [34]: 14%; inhibition [35]: 19%; inhibition [36]: 5%; inhibition [37]: -10%; inhibition (Rattus norvegicus [38]): -5%"
